Results on one compound are retold here after BindingDB's records for PubMed 35442672 (Fudan University, 2022).

What is called koff is a measure of how fast the partners let go of each other.

This test concerns the target T1, Dual specificity mitogen-activated protein kinase kinase 3 (Homo sapiens, UniProt P46734).
T1 sequence (P46734 whole entry): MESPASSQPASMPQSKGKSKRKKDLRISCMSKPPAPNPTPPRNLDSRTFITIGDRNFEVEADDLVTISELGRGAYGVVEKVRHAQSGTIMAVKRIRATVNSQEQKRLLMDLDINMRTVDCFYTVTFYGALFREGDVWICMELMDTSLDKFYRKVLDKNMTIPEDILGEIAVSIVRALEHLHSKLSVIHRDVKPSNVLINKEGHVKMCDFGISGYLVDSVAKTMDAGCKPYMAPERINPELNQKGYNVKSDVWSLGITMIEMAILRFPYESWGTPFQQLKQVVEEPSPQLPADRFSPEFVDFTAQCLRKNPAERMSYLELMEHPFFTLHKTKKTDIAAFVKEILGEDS
Nature of the test: Binding affinity to CM5 chip immobilized human MKK3 (20 to 347 residues) expressed in Escherichia coli BL21 (DE3) assessed as dissociation constant, Kd by surface plasmon resonance analysis.

Consider `COc1ccc([C@H]2CC(=O)c3cc(OC)cc(OC)c32)cc1`, for which the koff was 0.00361 s⁻¹.
